According to patent publication US10906889B2, “Polycyclic inhibitors of cyclin-dependent kinase 7 (CDK7)” (Dana-Farber Cancer Institute, Inc., priority 2013, dated 2021):
Like-named read-outs stand apart in the source and are kept apart here.

Assays:
CDK7 = biological target: T1, CDK7 (Homo sapiens, UniProt P50613); assay: Adapta kinase assay (Life Technologies), CDK7; type: biochemical
T1 construct: purchased Life Technologies (assay service)

CDK2 = biological target: T2, CDK2 (Homo sapiens, UniProt P24941); assay: Z'-Lyte kinase assay (Life Technologies), CDK2; type: biochemical; settings: co-factor cyclin A; for inhibition at 0.1 µM: compound tested at 100 nM, read-out: CDK2^a percent inhibition; for inhibition at 1 µM: compound tested at 1 μM, read-out: CDK2^b percent inhibition
T2 construct: purchased Life Technologies (assay service)

CDK8 = biological target: T3, CDK8 (Homo sapiens, UniProt P49336); assay: LanthaScreen Eu kinase assay (Life Technologies), CDK8; type: binding; settings: co-factor cyclin C; for inhibition at 0.1 µM: compound tested at 100 nM, read-out: CDK8^a percent inhibition; for inhibition at 1 µM: compound tested at 1 μM, read-out: CDK8^b percent inhibition
T3 construct: purchased Life Technologies (assay service)

CDK5/p25 = CDK5/p25 (Homo sapiens, UniProt Q00535); assay: Z'-Lyte kinase assay (Life Technologies), CDK5/p25; settings: for inhibition at 0.1 µM: read-out: CDK5^a,c percent inhibition; for inhibition at 1 µM: read-out: CDK5^b,c percent inhibition
Procedure: (§1) Compounds of the invention were assayed for activity against a variety of different kinases at Life Technologies™ (Grand Island, N.Y.) using their commercially available Adapta® (for CDK7, CDK9/cyclin T1, and IRAK1 kinases), Z′-Lyte® (for CDK1, CDK2, CDK5/p25, CDK5/p35, JNK1 and JNK2 kinases), and LanthaScreen Eu® (for CDK8, CDK9/cyclin K and MLK3) kinase assay services. Test compounds were tested at 100 nM and 1 μM final concentrations in 1% DMSO against all kinases except CDK7. For CDK7, test compounds were tested at concentrations ranging from 10 μM to 0.514 nM in a series of 3-fold serial dilutions. […] The co-factors used for each kinase in the assays were as follows: CDK1: cyclin B; CDK2: cyclin A; CDK5: p25 or p35 as indicated; CDK7: cyclin H and MNAT1; CDK8: cyclin C; CDK9: cyclin K or cyclin T1 as indicated; IRAK1: Histone H3 (1-20) peptide; JNK1: none required; JNK2: none required; MLK3: none required.

CDK9/cyclin T1 = CDK9/cyclin T1 (Homo sapiens, UniProt P50750); assay: Adapta kinase assay (Life Technologies), CDK9/cyclin T1; settings: for inhibition at 0.1 µM: read-out: CDK9^a,e percent inhibition; for inhibition at 1 µM: read-out: CDK9^b,e percent inhibition
Procedure: as §1

CDK9/cyclin K = CDK9/cyclin K (Homo sapiens, UniProt P50750); assay: LanthaScreen Eu kinase assay (Life Technologies), CDK9/cyclin K
Procedure: as §1

MLK3 = biological target: T4, MLK3 (Homo sapiens, UniProt Q16584); assay: LanthaScreen Eu kinase assay (Life Technologies), MLK3; type: binding; settings: for IC50: Table 2, read-out: MLK3 (calculated IC50); for inhibition at 0.1 µM: compound tested at 100 nM, read-out: MLK3^a percent inhibition
T4 construct: purchased Life Technologies (assay service)

CDK1 = biological target: T5, CDK1 (Homo sapiens, UniProt P06493); assay: Z'-Lyte kinase assay (Life Technologies), CDK1; type: biochemical; settings: co-factor cyclin B; for inhibition at 0.1 µM: compound tested at 100 nM, read-out: CDK1^a percent inhibition; for inhibition at 1 µM: compound tested at 1 μM, read-out: CDK1^b percent inhibition
T5 construct: purchased Life Technologies (assay service)

IRAK1 = biological target: T6, IRAK1 (Homo sapiens, UniProt P51617); assay: Adapta kinase assay (Life Technologies), IRAK1; type: biochemical; settings: for inhibition at 0.1 µM: compound tested at 100 nM, read-out: IRAK1^a percent inhibition; for inhibition at 1 µM: compound tested at 1 μM, read-out: IRAK1^b percent inhibition
T6 construct: purchased Life Technologies (assay service)

JNK1 = biological target: T7, JNK1 (Homo sapiens, UniProt P45983); assay: Z'-Lyte kinase assay (Life Technologies), JNK1; type: biochemical; settings: for inhibition at 0.1 µM: compound tested at 100 nM, read-out: JNK1^a percent inhibition; for inhibition at 1 µM: compound tested at 1 μM, read-out: JNK1^b percent inhibition
T7 construct: purchased Life Technologies (assay service)

JNK2 = biological target: T8, JNK2 (Homo sapiens, UniProt P45984); assay: Z'-Lyte kinase assay (Life Technologies), JNK2; type: biochemical; settings: for inhibition at 0.1 µM: compound tested at 100 nM, read-out: JNK2^a percent inhibition; for inhibition at 1 µM: compound tested at 1 μM, read-out: JNK2^b percent inhibition
T8 construct: purchased Life Technologies (assay service)

HL60 = assay: Cell proliferation (CellTiter-Glo, 72 hour), HL60; type: cell-based; settings: Homo sapiens, HL-60, blood cancer cell line, read-out: HL60 inhibition of proliferation (IC50)
THP-1 = assay: Cell proliferation (CellTiter-Glo, 72 hour), THP-1; type: cell-based; settings: Homo sapiens, blood cancer cell line, read-out: THP-1 inhibition of proliferation (IC50)
MV4-11 = assay: Cell proliferation (CellTiter-Glo, 72 hour), MV4-11; type: cell-based; settings: Homo sapiens, blood cancer cell line, read-out: MV4-11 inhibition of proliferation (IC50)
RS4-11 = assay: Cell proliferation (CellTiter-Glo, 72 hour), RS4-11; type: cell-based; settings: Homo sapiens, blood cancer cell line, read-out: RS4-11 inhibition of proliferation (IC50)
hTERT-HME1 = assay: Cell proliferation (CellTiter-Glo, 72 hour), hTERT-HME1; type: cell-based; settings: breast cancer cell lines table, read-out: hTERT-HME1 inhibition of proliferation (IC50)
MDA-MB231 = assay: Cell proliferation (CellTiter-Glo, 72 hour), MDA-MB231; type: cell-based; settings: Homo sapiens, MDA-MB-231, breast cancer cell line, read-out: MDA-MB231 inhibition of proliferation (IC50)
MCF7 = assay: Cell proliferation (CellTiter-Glo, 72 hour), MCF7; type: cell-based; settings: Homo sapiens, breast cancer cell line, read-out: MCF7 inhibition of proliferation (IC50)
MCF10A = assay: Cell proliferation (CellTiter-Glo, 72 hour), MCF10A; type: cell-based; settings: Homo sapiens, MCF-10A, breast cancer cell lines table, read-out: MCF10A inhibition of proliferation (IC50)
T47D = assay: Cell proliferation (CellTiter-Glo, 72 hour), T47D; type: cell-based; settings: Homo sapiens, breast cancer cell line, read-out: T47D inhibition of proliferation (IC50)
SKBR3 = assay: Cell proliferation (CellTiter-Glo, 72 hour), SKBR3; type: cell-based; settings: Homo sapiens, SK-BR-3, breast cancer cell line, read-out: SKBR3 inhibition of proliferation (IC50)
A673 = assay: Cell proliferation (CellTiter-Glo, 72 hour), A673; type: cell-based; settings: Homo sapiens, Ewing's sarcoma cell line, read-out: A673 inhibition of proliferation (IC50)
Hs822T = assay: Cell proliferation (CellTiter-Glo, 72 hour), Hs822T; type: cell-based; settings: Ewing's sarcoma cell line, read-out: Hs822T inhibition of proliferation (IC50)
Hs863T = assay: Cell proliferation (CellTiter-Glo, 72 hour), Hs863T; type: cell-based; settings: Ewing's sarcoma cell line, read-out: Hs863T inhibition of proliferation (IC50)
RD-ES = assay: Cell proliferation (CellTiter-Glo, 72 hour), RD-ES; type: cell-based; settings: Ewing's sarcoma cell line, read-out: RD-ES inhibition of proliferation (IC50)
SK-ES-1 = assay: Cell proliferation (CellTiter-Glo, 72 hour), SK-ES-1; type: cell-based; settings: Homo sapiens, SK-ES1, Ewing's sarcoma cell line, read-out: SK-ES-1 inhibition of proliferation (IC50)
SAOS = assay: Cell proliferation (CellTiter-Glo, 72 hour), SAOS; type: cell-based; settings: osteosarcoma cell line, read-out: SAOS inhibition of proliferation (IC50)
MNNG-HOS Cl #5 = assay: Cell proliferation (CellTiter-Glo, 72 hour), MNNG-HOS Cl #5; type: cell-based; settings: osteosarcoma cell line, read-out: MNNG-HOS Cl#5 inhibition of proliferation (IC50)
143B = assay: Cell proliferation (CellTiter-Glo, 72 hour), 143B; type: cell-based; settings: Homo sapiens, osteosarcoma cell line, read-out: 143B inhibition of proliferation (IC50)
Jurkat cells = assay: Cell proliferation (CellTiter-Glo, 72 hour), Jurkat; type: cell-based; settings: Homo sapiens, blood cancer cell line
CDK5/p35 = CDK5/p35 (Homo sapiens, UniProt Q00535); assay: Z'-Lyte kinase assay (Life Technologies), CDK5/p35; settings: for inhibition at 0.1 µM: read-out: CDK5^a,d percent inhibition; for inhibition at 1 µM: read-out: CDK5^b,d percent inhibition
Procedure: as §1

[1] = Table 1C, co-factors cyclin H and MNAT1, read-out: CDK7 IC50
[2] = Table 2, co-factors cyclin H and MNAT1, read-out: CDK7 (calculated IC50)

Chain of CDK5/p35 (Q00535 whole entry): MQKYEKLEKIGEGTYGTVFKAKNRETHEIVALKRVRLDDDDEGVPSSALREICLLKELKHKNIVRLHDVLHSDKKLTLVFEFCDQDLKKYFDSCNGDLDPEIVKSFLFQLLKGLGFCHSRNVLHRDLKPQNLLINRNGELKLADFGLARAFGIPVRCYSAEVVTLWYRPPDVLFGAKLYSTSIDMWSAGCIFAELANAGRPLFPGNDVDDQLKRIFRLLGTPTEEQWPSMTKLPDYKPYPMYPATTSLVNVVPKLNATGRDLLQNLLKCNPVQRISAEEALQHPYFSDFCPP
Chain of CDK5/p35 (Q15078 whole entry partner): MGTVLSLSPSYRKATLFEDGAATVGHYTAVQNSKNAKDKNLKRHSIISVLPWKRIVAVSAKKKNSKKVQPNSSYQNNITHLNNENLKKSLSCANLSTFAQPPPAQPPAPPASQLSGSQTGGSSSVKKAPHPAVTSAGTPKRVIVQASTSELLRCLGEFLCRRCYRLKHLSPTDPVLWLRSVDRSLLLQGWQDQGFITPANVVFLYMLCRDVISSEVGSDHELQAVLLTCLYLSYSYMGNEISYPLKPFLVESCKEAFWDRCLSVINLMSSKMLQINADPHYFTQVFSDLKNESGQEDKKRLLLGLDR
Chain of CDK5/p25 (Q00535 whole entry): as the sequence (Q00535 whole entry) above
Chain of CDK5/p25 (Q15078 99-307 partner limits assumed): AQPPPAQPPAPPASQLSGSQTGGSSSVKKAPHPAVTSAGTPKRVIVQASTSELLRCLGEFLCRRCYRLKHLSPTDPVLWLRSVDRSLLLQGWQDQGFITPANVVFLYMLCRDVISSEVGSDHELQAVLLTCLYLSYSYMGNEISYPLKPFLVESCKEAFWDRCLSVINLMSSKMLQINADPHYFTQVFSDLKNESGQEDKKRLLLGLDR
T3 sequence (P49336 whole entry): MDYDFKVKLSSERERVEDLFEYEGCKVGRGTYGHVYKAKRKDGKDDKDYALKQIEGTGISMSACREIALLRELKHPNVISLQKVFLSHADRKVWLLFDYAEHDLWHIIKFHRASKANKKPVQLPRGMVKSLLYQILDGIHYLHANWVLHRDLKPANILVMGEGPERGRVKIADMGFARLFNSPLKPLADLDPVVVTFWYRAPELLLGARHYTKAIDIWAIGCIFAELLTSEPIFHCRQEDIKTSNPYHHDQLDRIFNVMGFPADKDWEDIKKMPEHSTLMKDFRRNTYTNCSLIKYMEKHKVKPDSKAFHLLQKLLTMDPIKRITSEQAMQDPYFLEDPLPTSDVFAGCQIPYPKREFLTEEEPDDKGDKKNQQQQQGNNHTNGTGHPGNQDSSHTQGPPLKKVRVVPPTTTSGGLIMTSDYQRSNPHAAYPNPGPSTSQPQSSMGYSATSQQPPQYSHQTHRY
T3 sequence (P24863 whole entry partner): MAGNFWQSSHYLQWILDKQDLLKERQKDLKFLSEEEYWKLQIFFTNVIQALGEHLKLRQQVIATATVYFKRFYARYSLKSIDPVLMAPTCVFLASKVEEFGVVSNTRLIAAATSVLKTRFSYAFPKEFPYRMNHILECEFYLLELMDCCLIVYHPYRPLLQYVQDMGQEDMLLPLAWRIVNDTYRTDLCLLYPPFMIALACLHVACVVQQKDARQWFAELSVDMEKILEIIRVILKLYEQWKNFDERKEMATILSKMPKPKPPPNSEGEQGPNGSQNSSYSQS
T8 sequence (P45984 whole entry): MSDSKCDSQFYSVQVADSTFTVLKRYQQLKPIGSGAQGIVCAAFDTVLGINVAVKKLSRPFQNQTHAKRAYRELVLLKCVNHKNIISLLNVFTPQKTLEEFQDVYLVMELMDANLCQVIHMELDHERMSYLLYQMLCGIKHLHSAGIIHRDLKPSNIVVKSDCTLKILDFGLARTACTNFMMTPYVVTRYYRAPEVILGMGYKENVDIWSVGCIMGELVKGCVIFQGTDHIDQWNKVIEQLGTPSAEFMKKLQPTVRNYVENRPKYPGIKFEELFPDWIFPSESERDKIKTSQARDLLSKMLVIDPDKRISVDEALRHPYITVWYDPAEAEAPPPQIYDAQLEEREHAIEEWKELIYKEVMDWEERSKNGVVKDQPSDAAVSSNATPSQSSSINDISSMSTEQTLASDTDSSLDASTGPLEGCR
T1 sequence (P50613 whole entry): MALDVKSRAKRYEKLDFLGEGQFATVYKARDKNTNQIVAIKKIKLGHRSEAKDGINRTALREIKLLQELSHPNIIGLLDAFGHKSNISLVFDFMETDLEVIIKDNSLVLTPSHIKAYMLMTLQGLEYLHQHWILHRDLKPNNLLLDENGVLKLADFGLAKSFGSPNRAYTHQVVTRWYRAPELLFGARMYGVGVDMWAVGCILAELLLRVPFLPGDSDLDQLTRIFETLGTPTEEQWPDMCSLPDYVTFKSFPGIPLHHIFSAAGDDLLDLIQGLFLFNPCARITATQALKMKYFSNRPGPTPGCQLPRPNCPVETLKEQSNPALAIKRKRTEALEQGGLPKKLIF
T1 sequence (P51946 whole entry partner): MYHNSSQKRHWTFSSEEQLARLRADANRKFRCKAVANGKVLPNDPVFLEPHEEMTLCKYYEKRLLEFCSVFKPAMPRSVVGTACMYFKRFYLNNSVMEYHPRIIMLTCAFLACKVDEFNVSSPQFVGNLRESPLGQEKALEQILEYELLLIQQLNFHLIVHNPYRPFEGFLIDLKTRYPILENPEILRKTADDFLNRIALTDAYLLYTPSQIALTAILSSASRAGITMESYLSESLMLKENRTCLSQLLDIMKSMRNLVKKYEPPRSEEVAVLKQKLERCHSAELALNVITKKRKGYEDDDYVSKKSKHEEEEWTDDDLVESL
T1 sequence (P51948 whole entry partner): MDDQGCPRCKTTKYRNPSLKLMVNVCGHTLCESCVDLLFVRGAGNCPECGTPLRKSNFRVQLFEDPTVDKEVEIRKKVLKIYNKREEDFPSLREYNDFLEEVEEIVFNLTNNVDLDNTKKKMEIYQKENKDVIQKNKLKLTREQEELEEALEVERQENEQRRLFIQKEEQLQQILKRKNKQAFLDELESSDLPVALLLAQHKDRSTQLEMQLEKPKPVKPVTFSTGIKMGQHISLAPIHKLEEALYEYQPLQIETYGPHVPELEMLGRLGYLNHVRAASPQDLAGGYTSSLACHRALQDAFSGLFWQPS
Chain of CDK9/cyclin T1 (P50750 whole entry): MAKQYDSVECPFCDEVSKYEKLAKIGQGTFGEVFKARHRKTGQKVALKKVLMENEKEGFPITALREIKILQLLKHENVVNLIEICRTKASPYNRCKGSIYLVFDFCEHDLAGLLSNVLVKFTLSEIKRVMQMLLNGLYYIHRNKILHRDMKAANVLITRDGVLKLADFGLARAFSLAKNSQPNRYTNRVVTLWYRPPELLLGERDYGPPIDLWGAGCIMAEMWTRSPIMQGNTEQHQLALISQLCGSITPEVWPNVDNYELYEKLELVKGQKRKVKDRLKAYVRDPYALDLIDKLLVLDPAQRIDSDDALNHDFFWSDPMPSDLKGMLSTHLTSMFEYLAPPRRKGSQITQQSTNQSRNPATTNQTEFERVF
Chain of CDK9/cyclin T1 (O60563 whole entry partner): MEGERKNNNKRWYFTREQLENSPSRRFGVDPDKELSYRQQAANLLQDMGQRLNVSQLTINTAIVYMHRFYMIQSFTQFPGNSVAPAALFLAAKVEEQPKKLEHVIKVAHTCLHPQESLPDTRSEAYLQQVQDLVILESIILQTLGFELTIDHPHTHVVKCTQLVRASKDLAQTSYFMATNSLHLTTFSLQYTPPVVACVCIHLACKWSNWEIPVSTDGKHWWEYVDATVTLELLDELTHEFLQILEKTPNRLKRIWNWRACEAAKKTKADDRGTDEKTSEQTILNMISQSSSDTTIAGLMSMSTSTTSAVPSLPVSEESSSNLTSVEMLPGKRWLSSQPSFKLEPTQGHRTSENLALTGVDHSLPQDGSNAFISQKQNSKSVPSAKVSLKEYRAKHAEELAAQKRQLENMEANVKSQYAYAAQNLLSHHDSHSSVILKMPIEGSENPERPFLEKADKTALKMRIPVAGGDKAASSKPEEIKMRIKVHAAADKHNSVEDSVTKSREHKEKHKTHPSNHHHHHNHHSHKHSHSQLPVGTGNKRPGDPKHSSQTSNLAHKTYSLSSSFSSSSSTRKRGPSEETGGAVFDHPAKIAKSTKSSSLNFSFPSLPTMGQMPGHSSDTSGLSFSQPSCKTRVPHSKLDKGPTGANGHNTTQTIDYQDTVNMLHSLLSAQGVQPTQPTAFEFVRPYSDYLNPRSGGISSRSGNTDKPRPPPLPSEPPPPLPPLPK
T7 sequence (P45983 whole entry): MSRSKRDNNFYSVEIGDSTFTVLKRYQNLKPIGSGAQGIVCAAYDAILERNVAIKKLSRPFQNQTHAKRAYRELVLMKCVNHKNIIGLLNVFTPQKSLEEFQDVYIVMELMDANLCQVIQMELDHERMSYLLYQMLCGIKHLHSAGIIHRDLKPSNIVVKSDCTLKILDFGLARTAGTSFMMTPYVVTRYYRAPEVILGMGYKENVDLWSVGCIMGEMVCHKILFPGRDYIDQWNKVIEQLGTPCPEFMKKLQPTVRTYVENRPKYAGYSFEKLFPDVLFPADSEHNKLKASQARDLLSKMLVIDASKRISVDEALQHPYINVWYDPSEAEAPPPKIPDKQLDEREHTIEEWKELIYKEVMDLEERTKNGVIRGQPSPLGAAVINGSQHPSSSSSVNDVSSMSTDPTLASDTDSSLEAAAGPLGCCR

`CN(C)C/C=C/C(=O)Nc1ccc(C(=O)NC2CCCC(Nc3ncc(Cl)c(-c4c[nH]c5ccccc45)n3)C2)cc1` (stereo not shown) [Compound 100, (E)-N-(3-((5-chloro-4-(1H-indol-3-yl)pyrimidin-2-yl)amino)cyclohexyl)-4-(4-(dimethylamino)but-2-enamido)benzamide] showed an IC50 (CDK7; [1]) of less than 100 nM, an IC50 (CDK7; [2]) of less than 100 nM and an IC50 (CDK2; Table 2, read-out: CDK2 (calculated IC50)) greater than 1000 nM. It also gave an IC50 (CDK8; Table 2, read-out: CDK8 (calculated IC50)) of 100 to 1000 nM, an IC50 (CDK5/p25) greater than 1000 nM and an IC50 (CDK9/cyclin T1) of 100 to 1000 nM. For the same compound, the IC50 (CDK9/cyclin K) was 100 to 1000 nM.
Work on `CN(C)C/C=C/C(=O)Nc1ccc(C(=O)N[C@H]2CCC[C@@H](Nc3ncc(Cl)c(-c4c[nH]c5ccccc45)n3)C2)cc1` [Compound 102, N-((1S,3R)-3-(5-chloro-4-(1H-indol-3-yl)pyrimidin-2-ylamino)cyclohexyl)-4-((E)-4-(dimethylamino)but-2-enamido)benzamide] yielded an IC50 (CDK7; [1]) of less than 100 nM, an IC50 (CDK7; [2]) of less than 100 nM and an inhibition at 0.1 µM (CDK2) of less than 50%. The inhibition at 1 µM (CDK2) was less than 50%, the inhibition at 0.1 µM (CDK8) was less than 50% and the inhibition at 1 µM (CDK8) was less than 50%. For the same compound, the IC50 (MLK3) was greater than 1000 nM, the inhibition at 0.1 µM (MLK3) was less than 50% and the inhibition at 0.1 µM (CDK1) was less than 50%. It also gave an inhibition at 1 µM (CDK1) of less than 50%, an inhibition at 0.1 µM (IRAK1) of less than 50% and an inhibition at 1 µM (IRAK1) of less than 50%. The inhibition at 0.1 µM (JNK1) was less than 50%, the inhibition at 1 µM (JNK1) was 50 to 70% and the inhibition at 0.1 µM (JNK2) was less than 50%. The inhibition at 1 µM (JNK2) was 50 to 70%, the IC50 (HL60) was less than 500 nM and the IC50 (THP-1) was less than 500 nM. The IC50 (MV4-11) was less than 500 nM, the IC50 (RS4-11) was less than 500 nM and the IC50 (hTERT-HME1) was less than 500 nM. The IC50 (MDA-MB231) was less than 500 nM, the IC50 (MCF7) was greater than 5000 nM and the IC50 (MCF10A) was less than 500 nM. The IC50 (T47D) was greater than 5000 nM, the IC50 (SKBR3) was greater than 5000 nM and the IC50 (A673) was less than 500 nM. For the same compound, the IC50 (Hs822T) was greater than 5000 nM, the IC50 (Hs863T) was greater than 5000 nM and the IC50 (RD-ES) was less than 500 nM. For the same compound, the IC50 (SK-ES-1) was less than 500 nM, the IC50 (SAOS) was less than 500 nM and the IC50 (MNNG-HOS Cl #5) was greater than 5000 nM. For the same compound, the IC50 (143B) was greater than 5000 nM, the IC50 (Jurkat cells) was less than 500 nM and the IC50 (CDK5/p25) was greater than 1000 nM. The inhibition at 0.1 µM (CDK5/p25) was less than 50%, the inhibition at 1 µM (CDK5/p25) was less than 50% and the inhibition at 0.1 µM (CDK5/p35) was less than 50%. The inhibition at 1 µM (CDK5/p35) was less than 50%, the inhibition at 0.1 µM (CDK9/cyclin T1) was less than 50% and the inhibition at 1 µM (CDK9/cyclin T1) was less than 50%.
In the case of `CN(C)C/C=C/C(=O)Nc1ccc(C(=O)N[C@H]2CCC[C@H](Nc3ncc(Cl)c(-c4c[nH]c5ccccc45)n3)C2)cc1` [compound 103], the IC50 (CDK7; [1]) is reported as 100 to 1000 nM, the IC50 (CDK7; [2]) is reported as 100 to 1000 nM and the inhibition at 0.1 µM (CDK2) is reported as less than 50%. For the same compound, the inhibition at 1 µM (CDK2) was less than 50%, the inhibition at 0.1 µM (CDK8) was less than 50% and the inhibition at 1 µM (CDK8) was less than 50%. For the same compound, the IC50 (MLK3) was greater than 1000 nM, the inhibition at 0.1 µM (MLK3) was less than 50% and the inhibition at 0.1 µM (CDK1) was less than 50%. The inhibition at 1 µM (CDK1) was less than 50%, the inhibition at 0.1 µM (IRAK1) was less than 50% and the inhibition at 1 µM (IRAK1) was less than 50%. For the same compound, the inhibition at 0.1 µM (JNK1) was less than 50%, the inhibition at 1 µM (JNK1) was 50 to 70% and the inhibition at 0.1 µM (JNK2) was less than 50%. For the same compound, the inhibition at 1 µM (JNK2) was greater than 70%, the IC50 (HL60) was 500 to 5000 nM and the IC50 (THP-1) was 500 to 5000 nM. The IC50 (MV4-11) was less than 500 nM, the IC50 (RS4-11) was 500 to 5000 nM and the IC50 (hTERT-HME1) was 500 to 5000 nM. The IC50 (MDA-MB231) was 500 to 5000 nM, the IC50 (MCF7) was 500 to 5000 nM and the IC50 (MCF10A) was less than 500 nM. The IC50 (T47D) was greater than 5000 nM, the IC50 (SKBR3) was greater than 5000 nM and the IC50 (A673) was less than 500 nM. The IC50 (Hs822T) was greater than 5000 nM, the IC50 (Hs863T) was greater than 5000 nM and the IC50 (RD-ES) was 500 to 5000 nM. The IC50 (SK-ES-1) was 500 to 5000 nM, the IC50 (SAOS) was 500 to 5000 nM and the IC50 (MNNG-HOS Cl #5) was greater than 5000 nM. The IC50 (143B) was greater than 5000 nM, the IC50 (Jurkat cells) was 500 to 5000 nM and the IC50 (CDK5/p25) was greater than 1000 nM. It also gave an inhibition at 0.1 µM (CDK5/p25) of less than 50%, an inhibition at 1 µM (CDK5/p25) of less than 50% and an inhibition at 0.1 µM (CDK5/p35) of less than 50%. For the same compound, the inhibition at 1 µM (CDK5/p35) was less than 50%, the inhibition at 0.1 µM (CDK9/cyclin T1) was less than 50% and the inhibition at 1 µM (CDK9/cyclin T1) was 50 to 70%.
